# Laboratory results reported in patent publication US9365583B2, “Substituted pyrazoles and uses thereof” (Genentech, Inc., priority 2013, dated 2016).
# Target: T1, N-terminally GST-tagged DLK (catalytic domain amino acid 1-520) (Homo sapiens, UniProt Q12852)
# T1 construct: N-terminally GST-tagged DLK (catalytic domain amino acid 1-520); purchased Carna Bioscience
# T1 sequence (Q12852 1-520): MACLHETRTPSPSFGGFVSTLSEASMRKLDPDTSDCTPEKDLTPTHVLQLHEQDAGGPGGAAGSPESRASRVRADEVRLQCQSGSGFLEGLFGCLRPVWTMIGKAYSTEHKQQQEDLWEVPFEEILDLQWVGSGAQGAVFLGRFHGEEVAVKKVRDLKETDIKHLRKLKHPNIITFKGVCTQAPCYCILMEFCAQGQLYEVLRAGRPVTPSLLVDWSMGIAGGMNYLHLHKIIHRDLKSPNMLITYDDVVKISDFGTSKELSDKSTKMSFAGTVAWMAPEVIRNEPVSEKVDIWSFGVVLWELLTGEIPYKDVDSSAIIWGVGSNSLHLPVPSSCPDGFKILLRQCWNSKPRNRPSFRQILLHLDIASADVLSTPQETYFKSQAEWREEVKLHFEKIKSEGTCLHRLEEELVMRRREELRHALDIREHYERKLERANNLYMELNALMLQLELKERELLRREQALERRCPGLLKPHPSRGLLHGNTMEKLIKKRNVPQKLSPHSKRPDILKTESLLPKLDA
# Experiment: DLK TR-FRET inhibition assay
# Format: biochemical
# Conditions: 5 nM GST-DLK, 40 nM HIS-MKK4 K131M substrate, 30 μM ATP, 60 minutes at ambient temperature
# How it was run: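 Phosphorylated MKK4 was quantified by TR-FRET (Eu-labelled anti-phospho-MKK4, D2 anti-HIS; 3 h, 665 and 615 nm emission) after EDTA quench. Reactions held 5 nM GST-tagged DLK catalytic domain (1-520), 40 nM HIS-MKK4 K131M substrate, 30 μM ATP and compound (3-fold series from 20 uM), 60 min, room temperature, pH 7.5.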
row,Ki,Compound
1,13.5 nM,"CC(C)n1nc(-c2cnc(N)c(C(F)(F)F)c2)cc1[C@@H]1[C@H]2CC3C(OCCN3C)[C@H]21 (mixture of isomers) [compound 156, (±)-5-(1-isopropyl-5-(4-methyl-octahydro-2H-cyclopropa[4,5]cyclopenta[1,2-b][1,4]oxazin-6-yl)-1H-pyrazol-3-yl)-3-(trifluoromethyl)pyridin-2-amine]"
2,6.3 nM,"CC(C)n1nc(-c2cnc(N)c(C(F)(F)F)c2)cc1[C@H]1[C@@H]2C[C@H](OC3COC3)C[C@@H]21 [compound 287, 5-(1-isopropyl-5-((1R,3r,5S,6r)-3-(oxetan-3-yloxy)bicyclo[3.1.0]hexan-6-yl)-1H-pyrazol-3-yl)-3-(trifluoromethyl)pyridin-2-amine]"
3,5.4 nM,"CC(C)n1nc(-c2cnc(N)c(C(F)(F)F)c2)cc1[C@H]1[C@@H]2C[C@H](N3C[C@H]4C[C@@H]3CO4)C[C@@H]21 [compound 55, 5-(5-((1R,3r,5S,6R)-3-((1R,4R)-2-oxa-5-azabicyclo[2.2.1]heptan-5-yl)bicyclo[3.1.0]hexan-6-yl)-1-isopropyl-1H-pyrazol-3-yl)-3-(trifluoromethyl)pyridin-2-amine]"
4,3.4 nM,"CC(C)n1nc(-c2cnc(N)c(C(F)(F)F)c2)cc1[C@H]1[C@@H]2CC(N3CCN4CCOCC4C3)C[C@@H]21 (single isomer, unassigned) [compound 196]"
5,4.12 nM,"CC(C)n1nc(-c2cnc(N)c(OC(F)(F)F)c2)cc1[C@H]1[C@@H]2C[C@H](N3CCOC[C@@H]3C)C[C@@H]21 [compound 97, 5-(1-isopropyl-5-((1R,3r,5S,6S)-3-((S)-3-methylmorpholino)bicyclo[3.1.0]hexan-6-yl)-1H-pyrazol-3-yl)-3-(trifluoromethoxy) pyridin-2-amine]"
6,2 nM,"CC(C)n1nc(-c2cnc(N)c(OC(F)F)c2)cc1[C@H]1[C@@H]2C[C@@H](N3CCN(C)C[C@@H]3C)C[C@@H]21 [compound 241, 3-(difluoromethoxy)-5-(5-((1R,3s,5S,6S)-3-((S)-2,4-dimethyl-piperazin-1-yl)bicyclo[3.1.0]hexan-6-yl)-1-isopropyl-1H-pyrazol-3-yl)pyridin-2-amine]"
7,1.7 nM,"CC(C)n1nc(-c2cnc(N)c(C(F)(F)F)c2)cc1[C@H]1[C@@H]2C[C@@H](N3CCN(C)C[C@@H]3C)C[C@@H]21 [compound 239, 5-(5-((1R,3s,5S,6S)-3-((S)-2,4-dimethylpiperazin-1-yl)bicyclo [3.1.0]hexan-6-yl)-1-isopropyl-1H-pyrazol-3-yl)-3-(trifluoromethyl) pyridin-2-amine]"
8,1.1 nM,"CC(C)N1CCN([C@H]2C[C@@H]3[C@H](C2)[C@H]3c2cc(-c3cnc(N)c(OC(F)F)c3)nn2C(C)C)CC1 [compound 177, 3-(difluoromethoxy)-5-(1-isopropyl-5-((1R,3r,5S,6r)-3-(4-isopropyl-piperazin-1-yl)bicyclo[3.1.0]hexan-6-yl)-1H-pyrazol-3-yl) pyridin-2-amine]"
9,2.37 nM,"CC(C)n1nc(-c2cnc(N)c(C(F)(F)F)c2)cc1[C@H]1[C@@H]2C[C@@H](N3CC(F)C3)C[C@@H]21 [compound 37, 5-(5-((1R,3s,5S,6r)-3-(3-fluoro-azetidin-1-yl)bicyclo[3.1.0]hexan-6-yl)-1-isopropyl-1H-pyrazol-3-yl)-3-(trifluoromethyl)pyridin-2-amine]"
10,0.14 nM,"CC(C)n1nc(-c2cnc3ccn([C@@H](C)c4ccccn4)c3c2)cc1[C@H]1[C@@H]2C[C@H](N3CCOCC3)C[C@@H]21 [compound 27, 4-((1R,3S,5S,6r)-6-(1-isopropyl-3-(1-((S)-1-(pyridin-2-yl)ethyl)-1H-pyrrolo[3,2-b]pyridin-6-yl)-1H-pyrazol-5-yl)bicyclo[3.1.0]hexan-3-yl)morpholine]"
11,4.39 nM,"CC(C)n1nc(-c2cnc(N)c(C(F)(F)F)c2)cc1[C@H]1[C@@H]2C[C@H](N(C)CC3COC3)C[C@@H]21 [compound 20, 5-(1-isopropyl-5-((1R,3r,5S,6r)-3-(methyl(oxetan-3-ylmethyl)amino)bicyclo[3.1.0]hexan-6-yl)-1H-pyrazol-3-yl)-3-(trifluoro-methyl)pyridin-2-amine]"
12,14.4 nM,"CC(C)n1nc(-c2cnc(N)c(OC(F)F)c2)cc1[C@H]1[C@@H]2C[C@@H](O)C[C@@H]21 [compound 6, (1R,3s,5S,6r)-6-(3-(6-amino-5-(difluoromethoxy)pyridin-3-yl)-1-isopropyl-1H-pyrazol-5-yl) bicyclo[3.1.0]hexan-3-ol]"
13,1.43 nM,"CC(C)n1nc(-c2cnc(N)c(OC(F)F)c2)cc1[C@H]1[C@@H]2C[C@@H](N3CCOC[C@H]3C)C[C@@H]21 [compound 82, 3-(difluoromethoxy)-5-(1-isopropyl-5-((1R,3s,5S,6R)-3-((R)-3-methylmorpholino)bicyclo[3.1.0]hexan-6-yl)-1H-pyrazol-3-yl) pyridin-2-amine]"
14,3.55 nM,"Nc1ncc(-c2cc([C@H]3[C@@H]4C[C@H](N5CCOCC5)C[C@@H]43)n(CC3CCC3)n2)cc1OC(F)F [compound 127, 5-(1-(cyclobutylmethyl)-5-((1R, 3r,5S,6r)-3-morpholinobicyclo [3.1.0]hexan-6-yl)-1H-pyrazol-3-yl)-3-(difluoromethoxy)pyridin-2-amine]"
15,3 nM,"CC(=O)N(C)[C@H]1C[C@@H]2[C@H](C1)[C@H]2c1cc(-c2cnc(N)c(C(F)(F)F)c2)nn1C(C)C [compound 182, N-((1R,5S,6r)-6-(3-(6-amino-5-(trifluoromethyl)pyridin-3-yl)-1-isopropyl-1H-pyrazol-5-yl)bicyclo [3.1.0]hexan-3-yl)-N-methylacetamide]"
16,3.79 nM,"Nc1ncc(-c2cc([C@H]3[C@@H]4C[C@H](N5CCOCC5)C[C@@H]43)n(CC(F)F)n2)cc1C(F)(F)F [compound 91, 5-(1-(2,2-difluoroethyl)-5-((1R,3r,5S,6r)-3-morpholinobicyclo [3.1.0]hexan-6-yl)-1H-pyrazol-3-yl)-3-(trifluoromethyl)pyridin-2-amine]"
17,4.1 nM,"CC(C)n1nc(-c2cnc(N)c(C(F)(F)F)c2)cc1[C@H]1[C@@H]2C[C@H](N)C[C@@H]21 [compound 269, 5-(5-((1R,3r,5S,6r)-3-amino-bicyclo[3.1.0]hexan-6-yl)-1-isopropyl-1H-pyrazol-3-yl)-3-(trifluoro-methyl)pyridin-2-amine]"
18,2.6 nM,"COC1CCN([C@@H]2C[C@@H]3[C@H](C2)[C@H]3c2cc(-c3cnc(N)c(C(F)(F)F)c3)nn2C(C)C)CC1 [compound 249, 5-(1-isopropyl-5-((1R,3s,5S,6r)-3-(4-methoxypiperidin-1-yl)bicyclo[3.1.0]hexan-6-yl)-1H-pyrazol-3-yl)-3-(trifluoromethyl) pyridin-2-amine]"
19,2.9 nM,"CC(C)n1nc(-c2cnc(N)c(C(F)(F)F)c2)cc1[C@H]1[C@@H]2C[C@@H](N(C)C)C[C@@H]21 [compound 189, 5-(5-((1R,3s,5S,6r)-3-(dimethylamino)bicyclo[3.1.0]hexan-6-yl)-1-isopropyl-1H-pyrazol-3-yl)-3-(trifluoromethyl)pyridin-2-amine]"
20,3.05 nM,"COC1CN([C@H]2C[C@@H]3[C@H](C2)[C@H]3c2cc(-c3cnc(N)c(OC(F)F)c3)nn2C(C)C)C1 [compound 61, 3-(difluoromethoxy)-5-(1-isopropyl-5-((1R,3r,5S,6r)-3-(3-methoxy-azetidin-1-yl)bicyclo[3.1.0]hexan-6-yl)-1H-pyrazol-3-yl) pyridin-2-amine]"
21,< 0.1 nM,"CC(C)n1nc(-c2cnc(N)c(C(F)(F)F)c2)cc1[C@H]1[C@@H]2C[C@H](N3CCN4CCCC4C3)C[C@@H]21 (stereo partly drawn) [compound 262, 5-(5-((1R,3r,5S,6r)-3-(hexa-hydropyrrolo[1,2-a]pyrazin-2(1H)-yl)bicyclo[3.1.0]hexan-6-yl)-1-isopropyl-1H-pyrazol-3-yl)-3-(trifluoromethyl)pyridin-2-amine]"
22,3.1 nM,"CC(C)n1nc(-c2cnc(N)c(OC(F)(F)F)c2)cc1[C@H]1[C@@H]2C[C@@H](N(C)C3COC3)C[C@@H]21 [compound 48, 5-(1-isopropyl-5-((1R,3s,5S,6r)-3-(methyl(oxetan-3-yl)amino)bicyclo[3.1,0]hexan-6-yl)-1H-pyrazol-3-yl)-3-(trifluoromethoxy) pyridin-2-amine]"
23,5.1 nM,"CC(C)n1nc(-c2cnc(N)c(OC(F)F)c2)cc1[C@H]1[C@@H]2C[C@H](F)C[C@@H]21 [compound 213, 3-(difluoromethoxy)-5-(5-((1R,3r,5S,6r)-3-fluorobicyclo[3.1.0]hexan-6-yl)-1-isopropyl-1H-pyrazol-3-yl)pyridin-2-amine]"
24,4.2 nM,"CC(C)n1nc(-c2cnc(N)c(C(F)(F)F)c2)cc1[C@H]1[C@@H]2C[C@@H](N(C)CC3COC3)C[C@@H]21 [compound 21, 5-(1-isopropyl-5-((1R,3s,5S,6r)-3-(methyl(oxetan-3-ylmethyl)amino)bicyclo[3.1.0]hexan-6-yl)-1H-pyrazol-3-yl)-3-(trifluoromethyl) pyridin-2-amine]"
